Assays:
Format in all cases: in vivo, rat
T2DN rats [1] = assay: Diabetic nephropathy model (T2DN rats): renocortical (interstitial) fibrosis area by image analyzer; conditions: compound A 0.02% in mixed diet, lisinopril 10 mg/kg/day in drinking water, alone or combined, three months, FIG. 3
Experimental: (§1) The effect of compound A combined with ACE inhibitor in rats as a diabetic nephropathy model.
(§2) The test was conducted with rats (T2DN rats) that were an inbred line of Goto-Kakizaki (GK) rats with a manifestation of type II diabetes mellitus and which were in an advanced stage of kidney tissue injury resulting from a long-continued diabetic condition. Rats in groups each consisting of 8-9 animals (aged 14 months on average) were given repeated doses of compound A (0.02% in mixed diet) and the ACE inhibitor lisinopril (10 mg/kg/day in drinking water), either independently or in combination, for three months. A group of rats receiving only a diet containing no compound A were pathologic controls. Before and one month after the dosing, blood pressure measurement was conducted by the tail cuff method using a noninvasive automatic hemodynamometer. After the repeated dosing, the kidneys were removed from each rat under anesthetization with ketamine and thiobutabarbital and fixed in 10% neutral buffered formalin. Thin slices of the kidneys were prepared and subjected to Masson's trichrome stain. After masking the tissue specimens, thirty glomeruli were extracted from each specimen.
To evaluate the morbidity of interstitial fibrosis, the fibrotic area percentage of 10 regions per specimen was calculated on an image analyzer.

T2DN rats [2] = assay: Diabetic nephropathy model (T2DN rats): blood pressure by tail cuff method; conditions: compound A 0.02% in mixed diet, lisinopril 10 mg/kg/day in drinking water, alone or combined, before and one month after dosing, FIG. 1
Experimental: as §1, §2
Blood pressure was expressed by the mean blood pressure as calculated from systolic and diastolic pressures ((systolic pressure−diastolic pressure)/3+diastolic pressure)).

Goto-Kakizaki (GK) rats = assay: Diabetic animal model (GK rats): systolic blood pressure by tail cuff method, crossover; conditions: GK rats on high-glucose diet; compound A in mixed diet, valsartan single oral dose, alone or combined; 1, 2, 4, 6 hours after administration; FIG. 4
Source text: The effect of compound A combined with angiotensin II receptor blocker in rats as a diabetic model. Goto-Kakizaki (GK) rats as model animals spontaneously manifesting non-obese diabetes mellitus (Japan SLC, Inc.) were fed a high-glucose diet containing compound A. During the feeding of compound A in a mixed diet, a vehicle or an angiotensin II receptor blocker was orally administered in a single dose and the effects of the two drugs, administered either independently or in combination, on blood pressure were studied by the crossover method. The systolic blood pressure was measured by the tail cuff method using a non-heated, noninvasive hemodynamometer immediately before the oral administration of the angiotensin II receptor blocker and 1, 2, 4, and 6 hours after such administration.

T2DN rats [3] = assay: Diabetic nephropathy model (T2DN rats): glomerular injury score, Masson's trichrome stain; conditions: compound A 0.02% in mixed diet, lisinopril 10 mg/kg/day in drinking water, alone or combined, three months, grade 0-4, 30 glomeruli, FIG. 2
Experimental: as §1, §2

Row | SMILES | renocortical fibrosis score (area of kidney interstitial fibrosis) (T2DN rats [1]) | blood pressure lowering action (mean blood pressure) (T2DN rats [2]) | action for lowering the systolic blood pressure (Goto-Kakizaki (GK) rats) | glomerular injury score (improvement of scores of glomerular damage) (T2DN rats [3])
1 | CCOc1ccc(Cc2cc([C@@H]3S[C@H](CO)[C@@H](O)[C@H](O)[C@H]3O)c(OC)cc2C)cc1 [Compound A, (1S)-1,5-anhydro-1-[3-(4-ethoxybenzyl)-6-methoxy-4-methylphenyl]-1-thio-D-glucitol] | effective in ameliorating kidney tissue damage | little blood pressure lowering action | little blood lowering action | effective in improving scores of glomerular damage
2 | CCCCC(=O)N(Cc1ccc(-c2ccccc2-c2nnn[nH]2)cc1)[C@H](C(=O)O)C(C)C [Valsartan, valsartan] | – | – | a certain level of action for lowering the systolic blood pressure | –
3 | NCCCC[C@H](N[C@@H](CCc1ccccc1)C(=O)O)C(=O)N1CCC[C@H]1C(=O)O [Lisinopril, lisinopril] | no improvement in the area of interstitial fibrosis | a certain level of blood pressure lowering action | – | effective in improving scores of glomerular damage
